Data on 7 compounds can be found in the supplement of paper PMC11061612.

Common to all, as to test: Bliss excess, mean over the matrix (fraction); higher = more synergy
For experiment [1], the system named is SW13 (Other Solid Carcinomas). An outline of the steps: (§1)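 Bliss excess equals the observed combination effect minus the expected value EA + EB − EA·EB, where EA and EB are the effects of each agent alone. Combination Emax is the second-highest inhibition within the matrix. Inhibition was scaled from CellTiter-Glo 2.0 luminescence, with 0 set by vehicle wells and 1 by blank wells, after 72 hours of two-drug dosing of cells plated in 1536-well plates.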

Experiment [2] has as its system SU8686 (Pancreatic Carcinoma). An outline of the steps:
as §1

For experiment [3], the system named is PANC-04-03 (Pancreatic Carcinoma). The method in brief:
as §1

The subject of experiment [4] is MLMA (Other Blood Carcinomas). The method in brief:
as §1

For experiment [5], the system named is KYSE-450 (Esophageal Squamous Cell Carcinoma). The method in brief: as §1
Experiment [6] has as its system UACC-62 (Melanoma). The method in brief:
as §1

For experiment [7], the system named is HOP-62 (Lung Adenocarcinoma). The method in brief: as §1
Experiment [8] deals with RF-48 (B-Cell Non-Hodgkin's Lymphoma). An outline of the steps: as §1
The subject of experiment [9] is HGC-27 (Gastric Carcinoma). An outline of the steps:
as §1

The subject of experiment [10] is ACHN (Kidney Carcinoma). The method in brief:
as §1

In experiment [11] the test system is VA-ES-BJ (Other Solid Carcinomas). An outline of the steps:
as §1

Experiment [12] relates to YH-13 (Glioblastoma). An outline of the steps: as §1
In experiment [13] the test system is KARPAS-299 (T-Cell Non-Hodgkin's Lymphoma). An outline of the steps: as §1
The test system of experiment [14] is Ca9-22 (Head and Neck Carcinoma). An outline of the steps: as §1
Experiment [15] deals with BT-549 (Breast Carcinoma). An outline of the steps:
as §1

Experiment [16] concerns NCI-H727 (Other Solid Carcinomas). An outline of the steps: as §1
Experiment [17] relates to AMO-1 (Plasma Cell Myeloma). An outline of the steps: as §1
Experiment [18] concerns MIA-PaCa-2 (Pancreatic Carcinoma). An outline of the steps: as §1
The subject of experiment [19] is TGW (Neuroblastoma). An outline of the steps: as §1
In experiment [20] the test system is C-4-I (Cervical Carcinoma). The method in brief: as §1

For the compound `COc1nnc2ccc(N3CCC(c4ccc(OCCN5CCN(C)C(=O)[C@H]5C)cc4)CC3)nn12` [AZD5153] + C[C@@H]1COCCN1C2=NC(=NC(=C2)C3(CC3)[S@](=N)(=O)C)C4=C5C=CNC5=NC=C4 [AZD6738] (first compound max 1 µM, 7x7, partner max 10 µM), the Bliss excess was -0.022 in experiment [1]; -0.0329 in experiment [2]; -0.008 in [3]; -0.111 in experiment [4]; 0.0295 in experiment [5]; 0.0179 in [6]. The Bliss excess is -0.0276 in experiment [7]; -0.0851 in [8]; -0.0376 in [9]; 0.0379 in experiment [10]; 0.0315 in experiment [11]; -0.0157 in experiment [12]. Moreover, the Bliss excess in experiment [13] was 0.0074; in experiment [14], -0.0481; in experiment [15], -0.0139; in [16], 0.0364; in experiment [17], -0.0361; in experiment [18] it was 0.0077. Moreover, the Bliss excess in experiment [19] is -0.0601; in experiment [20], 0.0654.

Regarding `COc1nnc2ccc(N3CCC(c4ccc(OCCN5CCN(C)C(=O)[C@H]5C)cc4)CC3)nn12` [AZD5153] + Cc1c2c(nn1C)CSCc1cc(n(C)n1)CSc1cc(c3ccccc3c1)OCCCc1c(C(=O)O)n(C)c3c-2c(Cl)ccc13 [AZD5991] (first compound max 1 µM, 7x7, partner max 1 µM), the Bliss excess in experiment [1] is 0.0258; in experiment [2], -0.0221; in experiment [3], -0.0038; in experiment [4] it was -0.0085; in [5], -0.0579; in [6] it was 0.0084. In addition, the Bliss excess is -0.0482 in experiment [7]; -0.0863 in experiment [8]; -0.0471 in experiment [9]; -0.0565 in [10]; -0.0174 in experiment [11]; -0.0069 in experiment [12]. The Bliss excess in experiment [13] was -0.0277; in [14], 0.0049; in experiment [15] it was 0.0452; in experiment [16] it was -0.0398; in experiment [17], -0.0514; in experiment [18], 0.0438. In addition, the Bliss excess in [19] is -0.0523; in [20], 0.0867.

Consider `COc1nnc2ccc(N3CCC(c4ccc(OCCN5CCN(C)C(=O)[C@H]5C)cc4)CC3)nn12` [AZD5153] + Cn1cnc2c(F)c(Nc3ccc(Br)cc3Cl)c(C(=O)NOCCO)cc21 [Selumetinib] (first compound max 1 µM, 7x7, partner max 10 µM), for which the Bliss excess in experiment [1] was 0.0304; in experiment [2], -0.0166; in [3] it was -0.0358; in experiment [4], -0.0447; in experiment [5] it was 0.025; in [6] it was 0.0397. Further, the Bliss excess was -0.0724 in [7]; -0.0939 in experiment [8]; -0.083 in [9]; 0.0033 in [10]; -0.0155 in experiment [11]; -0.0356 in experiment [12]. The Bliss excess in experiment [13] is 0.0528; in experiment [14], 0.0592; in experiment [15], -0.0019; in [16] it was -0.0146; in [17] it was -0.0076; in experiment [18], -0.0371. Also, the figures for the Bliss excess in [19] and in experiment [20] were -0.0392 and 0.0398, respectively.

On to `Cc1c2c(nn1C)CSCc1cc(n(C)n1)CSc1cc(c3ccccc3c1)OCCCc1c(C(=O)O)n(C)c3c-2c(Cl)ccc13` [AZD5991] + C1CN(CCC1(C(=O)N[C@@H](CCO)C2=CC=C(C=C2)Cl)N)C3=NC=NC4=C3C=CN4 [Capivasertib] (first compound max 1 µM, 7x7, partner max 3 µM), for which the Bliss excess is 0.0419 in [1]; -0.0177 in experiment [2]; -0.0094 in experiment [3]; 0.0394 in experiment [4]; -0.009 in experiment [5]; 0.0121 in experiment [6]. For the same compound, the Bliss excess in experiment [7] is -0.0422; in experiment [8], 0.0285; in experiment [9], 0.0232; in [10] it was 0.0107; in experiment [11], -0.0109; in experiment [12] it was -0.0229. Also, the Bliss excess in experiment [13] was 0.0078; in experiment [14], -0.0261; in experiment [15], 0.0274; in [16], 0.0322; in experiment [17], 0.0178; in [18], 0.0125. The Bliss excess was 0.0078 in experiment [19] and 0.0117 in experiment [20].

On to `Cc1c2c(nn1C)CSCc1cc(n(C)n1)CSc1cc(c3ccccc3c1)OCCCc1c(C(=O)O)n(C)c3c-2c(Cl)ccc13` [AZD5991] + CC1(C)CCC(CN2CCN(c3ccc(C(=O)NS(=O)(=O)c4ccc(NCC5CCOCC5)c([N+](=O)[O-])c4)c(Oc4cnc5[nH]ccc5c4)c3)CC2)=C(c2ccc(Cl)cc2)C1 [Venetoclax] (first compound max 1 µM, 7x7, partner max 1 µM), for which the Bliss excess in experiment [1] is 0.0016; in experiment [2] it was -0.0391; in experiment [3] it was -0.0381; in [4], -0.0034; in experiment [5], -0.0061; in experiment [6], 0.0296. Besides, the Bliss excess is -0.0574 in [7]; 0.12 in experiment [8]; 0.1 in [9]; 0.0156 in [10]; -0.0429 in [11]; -0.0433 in experiment [12]. In addition, the Bliss excess in [13] is 0.0445; in experiment [14], -0.006; in [15], 0.0296; in experiment [16], -0.012; in [17], 0.0456; in experiment [18] it was -0.023. Further, the Bliss excess in experiment [19] was 0.128; in experiment [20], -0.0019.

With `Cc1c2c(nn1C)CSCc1cc(n(C)n1)CSc1cc(c3ccccc3c1)OCCCc1c(C(=O)O)n(C)c3c-2c(Cl)ccc13` [AZD5991] + C[C@@H]1COCCN1C2=NC(=NC(=C2)C3(CC3)[S@](=N)(=O)C)C4=C5C=CNC5=NC=C4 [AZD6738] (first compound max 1 µM, 7x7, partner max 10 µM), the Bliss excess in experiment [1] is 0.0363; in experiment [2], -0.008; in experiment [3] it was 0.0027; in experiment [4], -0.0392; in experiment [5], 0.0407; in experiment [6], 0.0478. In addition, the Bliss excess was 0.0213 in experiment [7]; -0.0062 in [8]; 0.0562 in experiment [9]; -0.0008 in experiment [10]; 0.0023 in experiment [11]; 0.0218 in [12]. Moreover, the Bliss excess in experiment [13] was 0.0002; in experiment [14] it was 0.0573; in experiment [15], 0.0869; in experiment [16], 0.025; in [17], 0.0055; in [18], 0.0652. For the same compound, the Bliss excess is 0.0167 in [19] and 0.0416 in experiment [20].

For `Cc1c2c(nn1C)CSCc1cc(n(C)n1)CSc1cc(c3ccccc3c1)OCCCc1c(C(=O)O)n(C)c3c-2c(Cl)ccc13` [AZD5991] + Cc1cc2ncnn2cc1Nc1ncc2c(n1)n(C1CCOCC1)c(=O)n2C [AZD7648] (first compound max 1 µM, 7x7, partner max 10 µM), the Bliss excess in [1] was 0.0165; in [2] it was -0.0366; in experiment [3], -0.0242; in [4], -0.0001; in experiment [5] it was -0.0321; in [6] it was -0.0534. The Bliss excess in experiment [7] was -0.0758; in [8], -0.0115; in experiment [9], -0.0131; in experiment [10], -0.0271; in experiment [11], -0.0239; in experiment [12], -0.091. The Bliss excess in [13] is -0.0066; in experiment [14], 0.0048; in experiment [15] it was -0.0523; in [16], -0.0833; in experiment [17] it was -0.0215; in experiment [18], -0.0385. Besides, the Bliss excess is -0.03 in experiment [19] and -0.0135 in experiment [20].
